Experimental data as given in paper PMC4042160, “In silico, in vitro and cellular analysis with a kinome-wide inhibitor panel correlates cellular LRRK2 dephosphorylation to inhibitor activity on LRRK2” (Frontiers in Molecular Neuroscience, 2014).
Like-named read-outs stand apart in the source and are kept apart here.

Columns and labels:
[1] = target: T1, full length LRRK2 protein (Homo sapiens, UniProt Q5S007); test: In vitro LRRKtide kinase assay with full length recombinant LRRK2, dose-response (IC50/pIC50); format: biochemical
T1 construct: compounds were tested in triplicate with full length LRRK2 protein; made in house
T1 sequence (Q5S007 whole entry): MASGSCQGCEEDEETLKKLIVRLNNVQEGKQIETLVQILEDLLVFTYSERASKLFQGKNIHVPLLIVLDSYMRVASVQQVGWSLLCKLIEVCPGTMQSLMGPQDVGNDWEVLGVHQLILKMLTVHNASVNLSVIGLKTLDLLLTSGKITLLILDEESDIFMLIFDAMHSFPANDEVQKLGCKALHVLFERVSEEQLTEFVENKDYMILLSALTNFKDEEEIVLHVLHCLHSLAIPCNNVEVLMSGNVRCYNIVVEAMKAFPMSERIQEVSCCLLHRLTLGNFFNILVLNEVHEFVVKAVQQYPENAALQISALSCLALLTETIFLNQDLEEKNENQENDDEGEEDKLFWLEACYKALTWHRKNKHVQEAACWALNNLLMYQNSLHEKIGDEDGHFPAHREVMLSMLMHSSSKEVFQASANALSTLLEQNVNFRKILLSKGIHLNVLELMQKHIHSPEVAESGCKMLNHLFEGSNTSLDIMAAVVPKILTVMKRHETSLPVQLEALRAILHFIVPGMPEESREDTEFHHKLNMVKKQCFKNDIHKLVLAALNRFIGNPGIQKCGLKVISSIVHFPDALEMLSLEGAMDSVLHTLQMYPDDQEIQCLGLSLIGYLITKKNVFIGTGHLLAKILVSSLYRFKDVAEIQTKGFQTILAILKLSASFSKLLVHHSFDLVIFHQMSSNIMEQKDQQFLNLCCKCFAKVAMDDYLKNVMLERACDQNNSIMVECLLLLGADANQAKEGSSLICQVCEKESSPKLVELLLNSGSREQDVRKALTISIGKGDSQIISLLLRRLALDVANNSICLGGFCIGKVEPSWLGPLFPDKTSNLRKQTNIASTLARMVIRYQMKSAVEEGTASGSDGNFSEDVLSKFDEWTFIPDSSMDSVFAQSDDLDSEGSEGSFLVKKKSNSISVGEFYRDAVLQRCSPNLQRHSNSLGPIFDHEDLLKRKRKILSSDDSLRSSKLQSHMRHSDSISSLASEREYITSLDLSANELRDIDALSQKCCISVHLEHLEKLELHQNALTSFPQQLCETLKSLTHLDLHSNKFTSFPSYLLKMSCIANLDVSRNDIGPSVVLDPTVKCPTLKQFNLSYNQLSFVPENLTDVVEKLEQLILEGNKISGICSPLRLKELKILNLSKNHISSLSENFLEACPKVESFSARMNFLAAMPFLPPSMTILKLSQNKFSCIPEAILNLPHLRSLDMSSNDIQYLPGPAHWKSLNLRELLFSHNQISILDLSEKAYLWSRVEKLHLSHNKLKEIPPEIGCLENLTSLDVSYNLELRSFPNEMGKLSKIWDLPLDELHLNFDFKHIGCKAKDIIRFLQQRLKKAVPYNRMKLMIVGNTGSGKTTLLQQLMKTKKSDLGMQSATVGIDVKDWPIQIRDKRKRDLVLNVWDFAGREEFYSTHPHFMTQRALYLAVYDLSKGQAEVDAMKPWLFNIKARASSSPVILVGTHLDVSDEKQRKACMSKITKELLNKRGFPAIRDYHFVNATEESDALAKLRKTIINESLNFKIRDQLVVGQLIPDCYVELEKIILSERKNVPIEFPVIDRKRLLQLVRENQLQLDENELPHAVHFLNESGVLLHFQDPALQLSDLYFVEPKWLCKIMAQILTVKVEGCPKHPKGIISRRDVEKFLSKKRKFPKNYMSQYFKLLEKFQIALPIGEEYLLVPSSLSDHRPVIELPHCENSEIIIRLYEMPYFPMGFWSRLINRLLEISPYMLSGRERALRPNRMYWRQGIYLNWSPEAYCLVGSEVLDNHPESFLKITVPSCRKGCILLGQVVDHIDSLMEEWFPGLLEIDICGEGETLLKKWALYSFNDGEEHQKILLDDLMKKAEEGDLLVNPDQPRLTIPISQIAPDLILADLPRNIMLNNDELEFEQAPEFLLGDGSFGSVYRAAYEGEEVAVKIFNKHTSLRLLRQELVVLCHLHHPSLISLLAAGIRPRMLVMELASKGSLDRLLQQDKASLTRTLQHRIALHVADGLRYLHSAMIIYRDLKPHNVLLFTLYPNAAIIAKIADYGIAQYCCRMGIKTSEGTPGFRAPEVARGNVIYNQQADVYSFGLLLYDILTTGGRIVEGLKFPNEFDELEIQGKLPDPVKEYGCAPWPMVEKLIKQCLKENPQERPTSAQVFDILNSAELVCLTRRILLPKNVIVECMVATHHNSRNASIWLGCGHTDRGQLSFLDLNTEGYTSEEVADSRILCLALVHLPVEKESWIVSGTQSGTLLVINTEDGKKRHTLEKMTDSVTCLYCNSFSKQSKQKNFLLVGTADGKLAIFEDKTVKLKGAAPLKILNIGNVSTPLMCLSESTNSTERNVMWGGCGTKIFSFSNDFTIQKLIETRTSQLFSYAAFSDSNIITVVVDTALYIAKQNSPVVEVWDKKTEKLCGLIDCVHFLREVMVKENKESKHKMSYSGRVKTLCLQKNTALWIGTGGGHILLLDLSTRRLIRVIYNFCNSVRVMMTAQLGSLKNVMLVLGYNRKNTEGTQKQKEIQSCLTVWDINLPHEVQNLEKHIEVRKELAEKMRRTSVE

LRRK2 phospho-Ser935 = target: T2, LRRK2 phospho-Ser935 (Homo sapiens, UniProt Q5S007); test: Cellular LRRK2 phosphoserine 935 dephosphorylation spotblot assay in SH-SY5Y cells stably expressing 3xFlag-LRRK2; format: cell-based; conditions: for Phosphorylation level relative to solvent (%) (cellular pS935 assay): @ 5 μM for 2 h, SH-SY5Y stably expressing LRRK2, pS935/total LRRK2; for Cellular pS935 (% @ 5 μM): pS935 level as % of control, 5 μM for 2 h
T2 construct: expressed in transfected cells
T2 sequence (Q5S007 whole entry): as above

LRRK2 = conditions: 2011, read-out: IC50 in vitro LRRK2, published, cited from earlier work
LRRK2 pS935 [2] = test system: LRRK2 pS935; parameters: method as in Dzamko et al., 2010; Deng et al., 2011; conditions: ref Dzamko et al., 2010; Deng et al., 2011; read-out: IC50 pS935 levels, western blot; cited from earlier work
LRRK2 pS935 [3] = test system: LRRK2 pS935; parameters: method as in Hermanson et al., 2012; conditions: ref Hermanson et al., 2012; read-out: IC50 pS935 levels, time-resolved FRET; cited from earlier work
LRRK2 pS935 [4] = test system: LRRK2 pS935; parameters: method as in Delbroek et al., 2013; conditions: ref Delbroek et al., 2013; read-out: IC50 pS935 levels, ELISA; cited from earlier work
[5] = target: T3, GST-tagged truncated LRRK2 containing residues 970 to 2527 (Homo sapiens, UniProt Q5S007); test: In vitro LRRKtide peptide-substrate kinase assay, single dose testing (10 μM); format: biochemical; conditions: LRRKtide assay @ 10 μM inhibitor; GST-LRRK2 970-2527; 10 μM ATP; mean, N = 3; solvent control = 100%
T3 construct: GST-tagged truncated LRRK2 containing residues 970 to 2527 (Life Technologies); purchased Life Technologies
T3 sequence (Q5S007 970-2527): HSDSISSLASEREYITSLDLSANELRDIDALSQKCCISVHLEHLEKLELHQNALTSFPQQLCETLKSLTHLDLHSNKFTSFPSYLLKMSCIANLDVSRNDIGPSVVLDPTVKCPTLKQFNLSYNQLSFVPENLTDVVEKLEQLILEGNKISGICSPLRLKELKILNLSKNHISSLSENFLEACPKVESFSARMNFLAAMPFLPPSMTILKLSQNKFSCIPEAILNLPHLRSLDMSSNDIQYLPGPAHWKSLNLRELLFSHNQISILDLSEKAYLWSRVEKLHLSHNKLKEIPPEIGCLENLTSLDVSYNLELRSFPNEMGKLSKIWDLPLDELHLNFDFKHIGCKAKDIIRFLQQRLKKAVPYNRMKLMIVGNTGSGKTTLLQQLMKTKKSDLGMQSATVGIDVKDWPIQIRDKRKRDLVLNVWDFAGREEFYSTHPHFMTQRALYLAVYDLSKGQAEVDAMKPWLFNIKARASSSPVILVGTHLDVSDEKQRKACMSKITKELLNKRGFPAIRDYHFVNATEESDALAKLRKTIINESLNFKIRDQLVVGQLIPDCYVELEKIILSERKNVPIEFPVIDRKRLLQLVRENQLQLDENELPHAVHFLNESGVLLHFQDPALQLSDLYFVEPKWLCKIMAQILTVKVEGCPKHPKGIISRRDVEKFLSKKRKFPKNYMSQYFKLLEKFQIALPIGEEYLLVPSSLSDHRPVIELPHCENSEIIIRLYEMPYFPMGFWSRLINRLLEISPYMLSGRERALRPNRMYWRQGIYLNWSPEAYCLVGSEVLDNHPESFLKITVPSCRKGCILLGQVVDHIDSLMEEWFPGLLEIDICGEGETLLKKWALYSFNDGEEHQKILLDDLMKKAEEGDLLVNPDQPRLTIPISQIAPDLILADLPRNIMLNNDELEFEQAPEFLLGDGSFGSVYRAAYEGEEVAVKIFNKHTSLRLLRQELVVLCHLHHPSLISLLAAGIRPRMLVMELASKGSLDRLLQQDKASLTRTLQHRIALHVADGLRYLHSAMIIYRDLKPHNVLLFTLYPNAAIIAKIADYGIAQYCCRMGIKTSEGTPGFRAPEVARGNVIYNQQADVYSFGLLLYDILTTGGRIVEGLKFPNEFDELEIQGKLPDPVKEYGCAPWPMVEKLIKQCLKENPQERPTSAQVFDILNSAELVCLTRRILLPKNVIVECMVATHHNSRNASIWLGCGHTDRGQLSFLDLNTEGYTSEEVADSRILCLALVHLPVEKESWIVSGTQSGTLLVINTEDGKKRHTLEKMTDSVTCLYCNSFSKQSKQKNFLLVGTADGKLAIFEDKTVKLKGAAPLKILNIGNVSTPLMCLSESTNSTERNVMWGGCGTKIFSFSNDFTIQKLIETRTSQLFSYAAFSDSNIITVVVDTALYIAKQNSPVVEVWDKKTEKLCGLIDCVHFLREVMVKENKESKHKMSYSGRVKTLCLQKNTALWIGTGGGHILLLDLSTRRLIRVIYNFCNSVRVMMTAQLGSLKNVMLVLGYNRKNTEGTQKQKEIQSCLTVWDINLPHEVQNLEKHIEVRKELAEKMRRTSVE

[6] = LRRKtide phosphorylation, dose-response
[7] = LRRKtide phosphorylation, dose-response, read-out: IC50 in vitro (lrrktide)
[8] = SH-SY5Y cells with stable expression of LRRK2
[9] = pS935 dephosphorylation, SH-SY5Y cells with stable expression of LRRK2
[10] = pS935 dephosphorylation, SH-SY5Y cells with stable expression of LRRK2, read-out: IC50 cellular (pS935)

Compound | % LRRKtide phosphorylation relative to solvent [5] [%] | pIC50 in vitro (lrrktide) [1, 6] | IC50 [1, 7] [nM] | Phosphorylation level relative to solvent (%) (cellular pS935 assay) (LRRK2 phospho-Ser935) | Cellular pS935 (% @ 5 μM) (LRRK2 phospho-Ser935; [8]) [%] | further results
COc1cc(C(=O)N2CCC(N3CCN(C)CC3)CC2)ccc1Nc1ncc2c(n1)N(C)c1ccccc1C(=O)N2C [LRRK2-IN1] |  |  |  |  |  | IC50 ([1]; full length LRRK2, 10 μM ATP, read-out: IC50 (LRRKtide phosphorylation assay)): 3.54 nM; IC50 (LRRK2 phospho-Ser935; SH-SY5Y stably overexpressing 3flag-LRRK2 WT, N ≥ 5, read-out: IC50 of phosphorylation at LRRK2 Ser935 (cellular spotblot)): 239 nM; IC50 (LRRK2; 100 μM ATP in original study, ref Deng et al.): 13 nM; IC50 (LRRK2 pS935 [2]): ~100 nM; IC50 (LRRK2 pS935 [3]): 90 to 200 nM; IC50 (LRRK2 pS935 [4]): 50 to 100 nM
COc1cc2ncnc(Nc3ccc(NC(=O)c4ccccc4)cc3)c2cc1OC [Aurora kinase inhibitor II] | 22.60 | <5 | > 10000 | 69.85 | 69.85 | 
COc1cc(OC)c(C=C2C(O)=Nc3ccccc32)c(OC)c1 [IC261] | 89.62 |  | > 10000 | 78.81 | 78.81 | 
O=C1Nc2ccc3ncsc3c2/C1=C/c1cnc[nH]1 [PKR inhibitor] | 1.18 | 6.44 | 363 | 29.00 | 29 | pIC50 cellular (pS935) (LRRK2 phospho-Ser935; [9]): 5.88; IC50 (LRRK2 phospho-Ser935; [10]): 1310 nM
COc1cc2ncnc(N3CCN(C(=O)Nc4ccc(Oc5ccccc5)cc4)CC3)c2cc1OC [PDGF receptor tyrosine kinase inhibitor III] | 55.86 | <5 | > 10000 | 72.83 | 72.83 | 
Nc1ccc2ncnc(NCCc3ccc(Oc4ccccc4)cc3)c2c1 [NF-KB activation inhibitor] | 57.28 | <5 | > 10000 | 65.67 | 65.67 | 
BPIQ-I | 17.30 | 5.12 | 7650 | 88.55 | 88.55 | 
COc1cc(N2CCOCC2)ccc1Nc1ncc(F)c(Nc2ccccc2NS(C)(=O)=O)n1 [CZC-25146] |  |  |  |  |  | IC50 ([1]; read-out: IC50 (LRRKtide phosphorylation assay)): 1.78 nM; IC50 (LRRK2 phospho-Ser935; read-out: IC50 of phosphorylation at LRRK2 Ser935 (cellular spotblot)): 61 nM; IC50 (LRRK2; ref Ramsden et al.): 4.76 nM
CC(=O)O/N=C1/C(=C2/C(=O)Nc3cc(Br)ccc32)Nc2ccccc21 [GSK-3 inhibitor X] | 38.94 | <5 | > 10000 | 106.06 | 106.06 | 
CC(C)[C@H](CO)Nc1nc(Nc2cccc(Cl)c2)c2ncn(C(C)C)c2n1 [Purvalanol A] | 15.64 |  | 4570 | 121.26 | 121.26 | 
O=C1Nc2ccccc2/C1=C\c1c(Cl)[nH]c2ccccc12 [Cdk1 inhibitor] | 29.84 | <5 | > 10000 | 78.35 | 78.35 | 
COc1cc2ncnc(Nc3ccc(OCc4ccccc4)cc3)c2cc1OC [EGFR/ErbB-2 inhibitor] | 68.24 | <5 | > 10000 | 67.43 | 67.43 | 
CCOC(=O)c1c(C)[nH]c(/C=C2\C(=O)Nc3ccccc32)c1C [VEGF receptor 2 kinase inhibitor I] | 26.67 | 7.61 | 24.6 | 60.83 | 60.83 | 

Second part, led by results:

% LRRKtide phosphorylation relative to solvent [5] [%] | pIC50 in vitro (lrrktide) [1, 6] | IC50 [1, 7] [nM] | Phosphorylation level relative to solvent (%) (cellular pS935 assay) (LRRK2 phospho-Ser935) | Cellular pS935 (% @ 5 μM) (LRRK2 phospho-Ser935; [8]) [%] | Compound | further results
32.67 | 5.05 | 8870 | 67.74 | 67.74 | CCC(=O)Nc1ccc2ncnc(Nc3cccc(Br)c3)c2c1 [PD 174265] | 
2.23 | 6.16 | 685 | 101.13 | 101.13 | O=C1Nc2ccccc2/C1=C1/Nc2ccccc2/C1=N\OCC(O)CO (centres unmarked) [Indirubin derivative E804] | 
2.05 | 7.37 | 43 | 52.43 | 52.43 | Cc1[nH]c(/C=C2\C(=O)Nc3ccc(S(=O)(=O)N(C)c4cccc(Cl)c4)cc32)c(C)c1C(=O)N1CCN(C)CC1 [Met kinase inhibitor] | 
19.33 | 5.83 | 1480 | 54.34 | 54.34 | CN(C)c1ccc(/C=C2\C(=O)Nc3ccccc32)cc1 [DMBI] | 
5.72 | 5.43 | 3730 | 75.11 | 75.11 | COc1cc2ncnc(Nc3cccc(Cl)c3)c2cc1OC [AG 1478] | 
4.52 | 5.52 | 3010 | 86.56 | 86.56 | CCOc1cc2ncnc(Nc3cccc(Br)c3)c2cc1OCC [Compound 56] | 
0.73 | 9.04 | 0.91 | 13.15 | 13.15 | Nc1nc(Nc2ccc(S(N)(=O)=O)cc2)nn1C(=S)Nc1c(F)cccc1F [Cdk1/2 inhibitor III] | pIC50 cellular (pS935) (LRRK2 phospho-Ser935; [9]): 8.93; IC50 (LRRK2 phospho-Ser935; [10]): 1.18 nM
1.86 |  | 1200 | 63.02 | 63.02 | COc1cc2ncnc(Nc3ccc(O)c(Br)c3)c2cc1OC [JAK3 inhibitor II] | 
7.76 | 5.41 | 3930 | 76.44 | 76.44 | CC(C)n1cnc2c(Nc3cccc(Cl)c3)nc(NCCO)nc21 [Compound 52] | 
